Patent publication US5336673A, “3-substituted cephem compounds” (priority 1990, dated 1994)
Values after ≈ are worked out from the molar mass of the structure shown. Like-named read-outs stand apart in the source and are kept apart here.

Assays:
Assay type in all cases: cell-based
[1] = test system: Staphylococcus aureus 503; assay: Antibacterial activity, MIC by Agar dilution method, standard test strain 6; conditions: 10^7 CFU/ml, 37° C., 18 hours
Method: (§1) The antibacterial activity was determined by an Agar dilution method as described below.
(§2) That is, the two-fold serial dilutions of the antibacterial compounds (1000 μg compound/ml) were prepared and dispersed in Muller Hinton Agar in a petri dish to a concentration of 100~0.002 μg/ml. The culture broths of standard test strains were inoculated on the medium to a concentration 10^7 CFU/ml, and incubated at 37° C. for 18 hours. The concentration of compounds(I) at which the strains were not grown was regarded as minimum inhibition concentration (MIC).
(§3) The results of antibacterial activity test of the representative examples of the compound (I) against 20 standard test strains shown in terms of MIC were indicated in Table 1.
6. Staphylococcus aureus 503

Enterobacter cloacae P99 = assay: Antibacterial activity, MIC by Agar dilution method, standard test strain 19; conditions: P99, 18 h
Method: as §1, §2, §3
19. Enterobacter cloacae P99

Escherichia coli 1507E = assay: Antibacterial activity, MIC by Agar dilution method, standard test strain 11; conditions: Escherichia coli 1507E; 10^7 CFU/ml, 37° C., 18 hours; read-out: MIC
Method: as §1, §2, §3

[2] = test system: Klebsiella aerogenes 1522E; assay: Antibacterial activity, MIC by Agar dilution method, standard test strain 18; conditions: Klebsiella aerogenes 1522E; 10^7 CFU/ml, 37° C., 18 hours; read-out: MIC
Method: as §1, §2, §3
18. Klebsiella aerogenes 1522E

Staphyloccus aureus 285 = assay: Antibacterial activity, MIC by Agar dilution method, standard test strain 5; conditions: 10^7 CFU/ml, 37° C., 18 hours
Method: as §1, §2, §3
5. Staphyloccus aureus 285

[3] = test system: Streptococcus pyogenes A 77; assay: Antibacterial activity, MIC by Agar dilution method, standard test strain 2; conditions: A77, 10^7 CFU/ml, 37° C., 18 hours
Method: as §1, §2, §3
2. Streptococcus pyogenes A 77

Escherichia coli DC O = assay: Antibacterial activity, MIC by Agar dilution method, standard test strain 8
Method: as §1, §2, §3

[4] = test system: Gram-positive strains as well as Gram-negative strains including Pseudomonas; assay: Antibacterial activity (summary in words); conditions: Gram-positive and Gram-negative strains
Method: as §1, §2

[5] = test system: Pseudomonas aeruginosa 9027; assay: Antibacterial activity, MIC by Agar dilution method, standard test strain 12; conditions: 10^7 CFU/ml, 37° C., 18 hours
Method: as §1, §2, §3
12. Pseudomonas aeruginosa 9027

[6] = test system: Enterobacter cloacae 1321E; assay: Antibacterial activity, MIC by Agar dilution method, standard test strain 20; conditions: Enterobacter cloacae 1321E; 10^7 CFU/ml, 37° C., 18 hours; read-out: MIC
Method: as §1, §2, §3
20. Enterobacter cloacae 1321E

[7] = test system: Pseudomonas aeruginosa 1592E; assay: Antibacterial activity, MIC by Agar dilution method, standard test strain 13; conditions: 10^7 CFU/ml, 37° C., 18 hours
Method: as §1, §2, §3
13. Pseudomonas aeruginosa 1592E

Salmonella typhimurium = assay: Antibacterial activity, MIC by Agar dilution method, standard test strain 16; conditions: Salmonella enterica, 10^7 CFU/ml, 37° C., 18 hours
Method: as §1, §2, §3
16. Salmonella typhimurium

[8] = test system: Streptococcus pyogenes A 308; assay: Antibacterial activity, MIC by Agar dilution method, standard test strain 1; conditions: A308, 10^7 CFU/ml, 37° C., 18 hours
Method: as §1, §2, §3
1. Streptococcus pyogenes A 308

[9] = test system: Pseudomonas aeruginosa 1771; assay: Antibacterial activity, MIC by Agar dilution method, standard test strain 14; conditions: 10^7 CFU/ml, 37° C., 18 hours
Method: as §1, §2, §3
14. Pseudomonas aeruginosa 1771

Escherichia coli TEM = assay: Antibacterial activity, MIC by Agar dilution method, standard test strain 10; conditions: Escherichia coli TEM; 10^7 CFU/ml, 37° C., 18 hours; read-out: MIC
Method: as §1, §2, §3

Klebsiella oxytoca 1082E = assay: Antibacterial activity, MIC by Agar dilution method, standard test strain 17; conditions: 10^7 CFU/ml, 37° C., 18 hours
Method: as §1, §2, §3

Escherichia coli O 55 = assay: Antibacterial activity, MIC by Agar dilution method, standard test strain 7
Method: as §1, §2, §3

Escherichia coli DC 2 = assay: Antibacterial activity, MIC by Agar dilution method, standard test strain 9; conditions: DC2; Escherichia coli DC 2; 10^7 CFU/ml, 37° C., 18 hours; read-out: MIC
Method: as §1, §2, §3

[10] = test system: Pseudomonas aeruginosa 1771M; assay: Antibacterial activity, MIC by Agar dilution method, standard test strain 15; conditions: 18 h
Method: as §1, §2, §3
15. Pseudomonas aeruginosa 1771M

[11] = test system: Staphylococcus aureus SG 511; assay: Antibacterial activity, MIC by Agar dilution method, standard test strain 4; conditions: SG511, 10^7 CFU/ml, 37° C., 18 hours
Method: as §1, §2, §3
4. Staphylococcus aureus SG 511

[12] = test system: Streptococcus faecium MD 86; assay: Antibacterial activity, MIC by Agar dilution method, standard test strain 3; conditions: Enterococcus faecium, MD86, 10^7 CFU/ml, 37° C., 18 hours
Method: as §1, §2, §3
3. Streptococcus faecium MD 86

[13] = Escherichia coli DC O, 10^7 CFU/ml, 37° C., 18 hours, read-out: MIC

CO/N=C(\C(=O)N[C@@H]1C(=O)N2C(C(=O)[O-])=C(C[N+]3(N)CCCC3)CS[C@H]12)c1csc(N)n1 [Example 1, (6R,7R)-7-[(Z)-2-(2-aminothiazol-4-yl)-2-methoxyiminoacetamido]-3-(1-aminopyrrolidiniummethyl)ceph-3-em-4-carboxylate]
MIC [1]: 1.56 µg/mL (≈ 3.25 µM) | MIC (Enterobacter cloacae P99): > 100 µg/mL | MIC (Escherichia coli 1507E): 0.391 µg/mL (≈ 0.812 µM) | MIC [2]: 0.195 µg/mL (≈ 0.405 µM) | MIC (Staphyloccus aureus 285): 12.5 µg/mL (≈ 26 µM) | MIC [3]: 0.025 µg/mL (≈ 0.0519 µM) | MIC (Escherichia coli DC O; [13]): 0.195 µg/mL (≈ 0.405 µM) | antibacterial activity (in words) [4]: excellent antibacterial activity | MIC [5]: 100 µg/mL (≈ 208 µM) | MIC [6]: 0.098 µg/mL (≈ 0.204 µM) | MIC [7]: 100 µg/mL (≈ 208 µM) | MIC (Salmonella typhimurium): 0.781 µg/mL (≈ 1.62 µM) | MIC [8]: 0.025 µg/mL (≈ 0.0519 µM) | MIC [9]: 50 µg/mL (≈ 104 µM) | MIC (Escherichia coli TEM): 0.391 µg/mL (≈ 0.812 µM) | MIC (Klebsiella oxytoca 1082E): 12.5 µg/mL (≈ 26 µM) | MIC (Escherichia coli O 55; Escherichia coli, O55, 18 h): 0.195 µg/mL (≈ 0.405 µM) | MIC (Escherichia coli DC 2): 0.391 µg/mL (≈ 0.812 µM) | MIC [10]: 3.12 µg/mL (≈ 6.49 µM) | MIC [11]: 6.26 µg/mL (≈ 13 µM) | MIC [12]: > 100 µg/mL

CO/N=C(\C(=O)N[C@@H]1C(=O)N2C(C(=O)[O-])=C(C[N+]3(N)CCc4ccccc4C3)CS[C@H]12)c1csc(N)n1 (stereo partly drawn) [Example 5, (6R,7R)-7-[(Z)-2-(2-aminothiazol-4-yl)-2-methoxyiminoacetamido]-3-[(2-amino-1,2,3,4-tetrahydroisoquinolin-2-ium)methyl]-ceph-3-em-4-carboxylate]
MIC [1]: 0.781 µg/mL (≈ 1.44 µM) | MIC (Enterobacter cloacae P99): 100 µg/mL (≈ 184 µM) | MIC (Escherichia coli 1507E): 0.781 µg/mL (≈ 1.44 µM) | MIC [2]: 0.013 µg/mL (≈ 0.0239 µM) | MIC (Staphyloccus aureus 285): 6.25 µg/mL (≈ 11.5 µM) | MIC [3]: 0.013 µg/mL (≈ 0.0239 µM) | MIC (Escherichia coli DC O; [13]): 0.391 µg/mL (≈ 0.719 µM) | antibacterial activity (in words) [4]: excellent antibacterial activity | MIC [5]: 50 µg/mL (≈ 92 µM) | MIC [6]: 0.013 µg/mL (≈ 0.0239 µM) | MIC [7]: 50 µg/mL (≈ 92 µM) | MIC (Salmonella typhimurium): 0.781 µg/mL (≈ 1.44 µM) | MIC [8]: 0.049 µg/mL (≈ 0.0901 µM) | MIC [9]: 50 µg/mL (≈ 92 µM) | MIC (Escherichia coli TEM): 0.781 µg/mL (≈ 1.44 µM) | MIC (Klebsiella oxytoca 1082E): 12.5 µg/mL (≈ 23 µM) | MIC (Escherichia coli O 55; Escherichia coli, O55, 18 h): 0.391 µg/mL (≈ 0.719 µM) | MIC (Escherichia coli DC 2): 0.781 µg/mL (≈ 1.44 µM) | MIC [10]: 1.56 µg/mL (≈ 2.88 µM) | MIC [11]: 1.56 µg/mL (≈ 2.88 µM) | MIC [12]: 50 µg/mL (≈ 92 µM)

CO/N=C(\C(=O)N[C@@H]1C(=O)N2C(C(=O)[O-])=C(CN3CC[N+](C)(N)CC3)CS[C@H]12)c1csc(N)n1 [Example 11, (6R,7R)-7-[(Z)-2-(2-aminothiazol-4-yl)-2-methoxyiminoacetamido]-3-[(1-amino-1-methyl-4-piperazinium)methyl]-ceph-3-em-4-carboxylate]
MIC [1]: 0.781 µg/mL (≈ 1.53 µM) | MIC (Enterobacter cloacae P99): 100 µg/mL (≈ 196 µM) | MIC (Escherichia coli 1507E): 0.781 µg/mL (≈ 1.53 µM) | MIC [2]: 0.391 µg/mL (≈ 0.766 µM) | MIC (Staphyloccus aureus 285): 12.5 µg/mL (≈ 24.5 µM) | MIC [3]: 0.007 µg/mL (≈ 0.0137 µM) | MIC (Escherichia coli DC O; Escherichia coli, 18 h): 0.781 µg/mL (≈ 1.53 µM) | antibacterial activity (in words) [4]: excellent antibacterial activity | MIC [5]: 50 µg/mL (≈ 97.9 µM) | MIC [6]: 0.195 µg/mL (≈ 0.382 µM) | MIC [7]: 50 µg/mL (≈ 97.9 µM) | MIC (Salmonella typhimurium): 0.391 µg/mL (≈ 0.766 µM) | MIC [8]: 0.013 µg/mL (≈ 0.0255 µM) | MIC [9]: 25 µg/mL (≈ 49 µM) | MIC (Escherichia coli TEM): 0.391 µg/mL (≈ 0.766 µM) | MIC (Klebsiella oxytoca 1082E): 6.25 µg/mL (≈ 12.2 µM) | MIC (Escherichia coli O 55; O55, Escherichia coli O 55, 10^7 CFU/ml, 37° C., 18 hours, read-out: MIC): 0.195 µg/mL (≈ 0.382 µM) | MIC (Escherichia coli DC 2): 0.781 µg/mL (≈ 1.53 µM) | MIC [10]: 1.56 µg/mL (≈ 3.06 µM) | MIC [11]: 1.56 µg/mL (≈ 3.06 µM) | MIC [12]: > 100 µg/mL
